# Measured values reported in PubChem BioAssay AID652002 (Sanford-Burnham Center for Chemical Genomics, 2013).
# Active and inactive are the calls of the source. The rule behind the calls is not given here.
# Key:
# NB7+Caspase-8 = assay: TRAIL sensitizers in caspase-8 expressing neuroblastoma cells, dose response, NB7 cells plus caspase-8, luminescence, panel (AID 652002); details: NB7 neuroblastoma +caspase-8, TRAIL sensitization, luminescence viability, with TRAIL
# [1] = biological target: Tumor necrosis factor receptor superfamily member 10B (Homo sapiens) (UniProt O14763); assay: as above; details: NB7 neuroblastoma +caspase-8, TRAIL sensitization, luminescence viability; NB7+Caspase-8; with TRAIL, mean of runs
# Sequence of Tumor necrosis factor receptor superfamily member 10B (Homo sapiens) (O14763 whole entry, looked up): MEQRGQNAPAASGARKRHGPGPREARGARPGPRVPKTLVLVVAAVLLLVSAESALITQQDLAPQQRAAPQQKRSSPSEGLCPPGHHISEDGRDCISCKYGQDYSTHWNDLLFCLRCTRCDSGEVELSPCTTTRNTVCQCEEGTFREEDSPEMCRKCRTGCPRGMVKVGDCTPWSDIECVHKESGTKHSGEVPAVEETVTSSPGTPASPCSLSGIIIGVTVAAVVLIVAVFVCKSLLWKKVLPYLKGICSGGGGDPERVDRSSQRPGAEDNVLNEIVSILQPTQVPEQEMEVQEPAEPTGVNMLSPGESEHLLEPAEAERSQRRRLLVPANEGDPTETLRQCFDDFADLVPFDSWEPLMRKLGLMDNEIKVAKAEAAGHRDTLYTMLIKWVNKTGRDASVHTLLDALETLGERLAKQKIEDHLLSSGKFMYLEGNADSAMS
# [2] = as above; details: NB7 neuroblastoma +caspase-8, no TRAIL, compound-alone cytotoxicity counter-screen, luminescence viability, NB7+Caspase-8
# [3] = run 1, single replicate panel EC50
# [4] = run 2, single replicate panel EC50
SMILES,EC50 (NB7+Caspase-8; [3]),EC50 (NB7+Caspase-8; [4]),EC50 [1],EC50 ([2]; mean of runs),"EC50 [2, 3]","EC50 [2, 4]"
CCCCCc1cc(=O)oc2c(C(CCN(CC)CC)c3cc(OC)c(OC)c(OC)c3)c(OC)cc(OC)c12 (configuration not stated),> 12.5 µM,10.3 µM,inactive,> 12.5 µM (inactive),> 12.5 µM,> 12.5 µM
O=C(Nc1ccc2ccccc2c1)c1ccc(Cl)cc1,> 12.5 µM,> 12.5 µM,> 12.5 µM (inactive),> 12.5 µM (inactive),> 12.5 µM,> 12.5 µM
COc1ccc(-c2nnc(SCC(=O)c3[nH]c(C)c(C(C)=O)c3C)o2)cc1,> 12.5 µM,> 12.5 µM,> 12.5 µM (inactive),> 12.5 µM (inactive),> 12.5 µM,> 12.5 µM
CCOC(=O)c1sc(NC(=O)c2cccc(S(=O)(=O)N3CCc4ccccc43)c2)c(C#N)c1C,> 12.5 µM,> 12.5 µM,> 12.5 µM (inactive),> 12.5 µM (inactive),> 12.5 µM,> 12.5 µM
Cc1nc2cc(NC(=O)c3ccco3)ccc2n1C,> 12.5 µM,> 12.5 µM,> 12.5 µM (inactive),inactive,> 12.5 µM,11.5 µM
COCCNc1c(-c2cc3ccc(C)c(C)c3[nH]c2=O)nc2ccccn12,8.39 µM,4.64 µM,inactive,inactive,> 12.5 µM,6.1 µM
CN(C)c1ccc(N/C=C/C(=O)c2ccco2)cc1,7.78 µM,6.42 µM,inactive,inactive,7.62 µM,> 12.5 µM
CCOC(=O)c1sc(NC(=O)c2cc(-c3ccccc3C)nc3ccccc23)c(C#N)c1C,> 12.5 µM,> 12.5 µM,> 12.5 µM (inactive),> 12.5 µM (inactive),> 12.5 µM,> 12.5 µM
CN(C)CCCN(C(=O)c1ccc(C(=O)c2ccccc2)cc1)c1nc2ccc(F)cc2s1,> 12.5 µM,> 12.5 µM,> 12.5 µM (inactive),> 12.5 µM (inactive),> 12.5 µM,> 12.5 µM
O=C1c2ccc3c4c(ccc(c24)C(=O)N1c1cccc(O)c1)C(=O)N(c1cccc(O)c1)C3=O,2.35 µM,12.4 µM,inactive,> 12.5 µM (inactive),> 12.5 µM,> 12.5 µM
O=C(NC(=S)Nc1nc2c(s1)CCCC2)c1ccccc1,7.43 µM,> 12.5 µM,inactive,> 12.5 µM (inactive),> 12.5 µM,> 12.5 µM
COc1cc(NC(=O)c2[nH]cnc2C(N)=O)cc(C(=O)Nc2cccc(C(F)(F)F)c2)c1,> 12.5 µM,8.91 µM,inactive,inactive,> 12.5 µM,10.4 µM
CCSc1ccc(-c2ccc(C)cc2)nn1,> 12.5 µM,7.07 µM,inactive,inactive,> 12.5 µM,8.12 µM
COC(=O)CSc1nc2cc(C)ccc2cc1C#N,> 12.5 µM,7.44 µM,inactive,> 12.5 µM (inactive),> 12.5 µM,> 12.5 µM
Cc1ccc(NC(=O)CSc2nc3ccc(Nc4nc(N5CCOCC5)nc(N5CCOCC5)n4)cc3s2)cc1,> 12.5 µM,> 12.5 µM,> 12.5 µM (inactive),> 12.5 µM (inactive),> 12.5 µM,> 12.5 µM
C=Cc1ccc(Cn2c(C)c(C(=O)NCc3cccc(C(F)(F)F)c3)sc2=O)cc1,> 12.5 µM,> 12.5 µM,> 12.5 µM (inactive),> 12.5 µM (inactive),> 12.5 µM,> 12.5 µM
COc1cccc(N/C=C/C(=O)c2ccc(Cl)cc2)c1,> 12.5 µM,11.1 µM,inactive,inactive,10.4 µM,10.3 µM
